Data on one molecule can be found in patent US5187168A, “Substituted quinazolines as angiotensin II antagonists” (American Home Products Corporation, priority 1991, dated 1993).

This experiment deals with A II-infused rat. The experiment is described as follows: A II-infused rat model (ganglion-blocked, intraduodenal dosing), antihypertensive action. To be noted: 10 mg/kg id, one half hour post-administration. The format is in vivo. As for the experimental part:
In accordance with their ability to antagonize angiotensin II, the compounds of this invention show antihypertensive action in the following A II-infused rat model. Rats are anesthetized with Dial-Urethane (0.60 mL/kg, ip) and the trachea cannulated with PE 240. Either one femoral artery and both femoral veins or the carotid artery and the corresponding jugular vein are cannulated with PE 50. If the jugular vein is cannulated, two cannulas are placed in the one vein. The initial portion of the duodenum (just distal to the stomach) is cannulated with PE 50 via a small midline incision. Arterial pressure and heart rate are measured from the arterial cannula. Ten to 15 min are allowed following surgery for stabilization of arterial pressure. Ganglion blockade is then produced by intravenous administration of mecamylamine at 3 mg/kg (1 mL/kg of a 3 mg/mL solution). Ganglion blockade causes a fall in arterial pressure of about 50 mmHg. Mecamylamine is given every 90 min throughout the remainder of the experiment. An A II infusion is then begun into the other venous cannula at […] (at 9.6 uLmin). The A II infusion returns arterial pressure to or slightly above the control level. Once arterial pressure has stabilized with the A II infusion, baseline values for mean arterial pressure (MAP) and heart rate are taken. […]

For `O=C(O)c1ccccc1-c1ccc(CNc2nc(C(F)(F)F)nc3ccsc23)cc1` [Example 36], the “lowering of the A II dependent blood pressure (average)” value turned out to be 45%.
